The values that follow come from US8193179B2, “3-amino-6-(1-amino-ethyl)-tetrahydropyran derivatives” (Actelion Pharmaceuticals, Ltd, priority 2007, dated 2012).

What all share (assay type): cell-based
One test has as its system P. aeruginosa A1124. Kind of test: MIC by microdilution in cation-adjusted Mueller-Hinton Broth, P. aeruginosa A1124. Conditions: strain A1124, test medium pH 7.2-7.3; for MIC: Pseudomonas aeruginosa. Here is the method: (§1) These assays have been performed following the description given in “Methods for dilution Antimicrobial Susceptibility Tests for Bacteria that Grow Aerobically, 4th ed.; Approved standard: NCCLS Document M7-A4; National Committee for Clinical Laboratory Standards: Villanova, Pa., USA, 1997”. Minimal inhibitory concentrations (MICs; mg/l) were determined in cation-adjusted Mueller-Hinton Broth (BBL) by a microdilution method following NCCLS guidelines (National Committee for Clinical Laboratory Standards. Methods for Dilution Antimicrobial Susceptibility). The pH of the test medium was 7.2-7.3.
A general note: Dilution methods test growth across graded concentrations, often in twofold steps.

The next test relates to S. aureus A798. The test can be described thus: MIC by microdilution in cation-adjusted Mueller-Hinton Broth, S. aureus A798. Conditions: strain A798, test medium pH 7.2-7.3; for MIC: Staphylococcus aureus. The protocol:
as §1

Another test deals with A. baumanii T6474. Kind of test: MIC by microdilution in cation-adjusted Mueller-Hinton Broth, A. baumanii T6474. Conditions: strain T6474, test medium pH 7.2-7.3; for MIC: Acinetobacter baumannii. The protocol: as §1
Setting [1] is: read-out: MIC P. aeruginosa A1124 (further typical results, comparison with WO 2006/032466).
Where [2] appears, read: read-out: MIC P. aeruginosa A1124.

In brackets after ≈: the same amount, converted by molar mass. Where two headings read alike, the source gives them in different places. Bounds are passed on as bounds.

With `COc1ccc2nccc(CC(N)[C@@H]3CC[C@@H](NCc4ccc5c(n4)NC(=O)CS5)CO3)c2c1` (mixture of isomers) [Example 4, 6-({(3R,6S)-6-[(1RS)-1-amino-2-(6-methoxy-quinolin-4-yl)-ethyl]-tetrahydro-pyran-3-ylamino}-methyl)-4H-pyrido[3,2-b][1,4]thiazin-3-one], the MIC with P. aeruginosa A1124 (setting [1]) was 8 µg/mL.

As for `COc1ccc2ncc(F)c(CC(N)[C@@H]3CC[C@@H](NCc4ccc5c(n4)NC(=O)CO5)CO3)c2n1` (mixture of isomers) [Example 15, 6-({(3R,6S)-6-[(1RS)-1-amino-2-(3-fluoro-6-methoxy-[1,5]naphthyridin-4-yl)-ethyl]tetrahydro-pyran-3-ylamino}-methyl)-4H-pyrido[3,2-b][1,4]oxazin-3-one], the MIC against S. aureus A798 is not above 0.031 µg/mL; in the test with P. aeruginosa A1124 (setting [2]), 0.125 µg/mL; in the test on A. baumanii T6474 it was not above 0.031 µg/mL.

For the compound `NC(Cc1ccnc2ccc(F)cc12)[C@@H]1CC[C@@H](NC/C=C/c2cc(F)ccc2F)CO1` (mixture of isomers) [Example 3, {(3R,6S)-6-[(1RS)-1-amino-2-(6-fluoro-quinolin-4-yl)-ethyl]-tetrahydro-pyran-3-yl}-[(E)-3-(2,5-difluoro-phenyl)-allyl]-amine], the MIC against S. aureus A798 stood at 0.25 µg/mL; in the test on P. aeruginosa A1124 (setting [2]), 0.5 µg/mL; against A. baumanii T6474, 0.5 µg/mL.

For the compound `COc1ccc2nccc(C[C@H](N)[C@@H]3CC[C@@H](NCc4ccc(C)c(F)c4)CO3)c2n1` [Example 19], the “MIC S. aureus A798” value with S. aureus A798 is on record as “≦0.031 mg/l”. In the test with P. aeruginosa A1124, the “MIC P. aeruginosa A1124” value was found to be 2 µg/mL (≈ 4.71 µM). The “MIC A. baumanii T6474” value in the test on A. baumanii T6474 was determined as 0.5 µg/mL (≈ 1.18 µM).

Take `COc1ccc2nccc(C[C@H](N)[C@@H]3CC[C@@H](NCc4ccc5c(n4)NC(=O)CS5)CO3)c2n1` [Example 8, 6-({(3R,6S)-6-[(1S)-1-amino-2-(6-methoxy-[1,5]naphthyridin-4-yl)-ethyl]-tetrahydro-pyran-3-ylamino}-methyl)-4H-pyrido[3,2-b][1,4]thiazin-3-one]: the MIC in the test with P. aeruginosa A1124 (setting [1]) turned out to be 2 µg/mL (≈ 4.16 µM).
